Assay results published in patent US9926302B2, “Heteroaryl substituted heterocyclyl sulfones” (priority 2014, dated 2018).

The compounds below were run against T1, Human CaV2.2 channels (Homo sapiens, UniProt Q00975) (assay: Fluorescence assay for CaV2.2 channels using potassium depolarization to induce channel opening (FLIPR, Fluo 4)). Details: 3 μM test compound; alternative assay buffer 30 mM KCl (inactivated channel state); HEK293 cells stably expressing human CaV2.2.
T1 construct: expressed in transfected cells
Type: cell-based
Method in brief: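 HEK293 cells stably co-expressing CaV2.2 with alpha2-delta and beta subunits plus Kir2.3, loaded with 2 μM Fluo 4 and pre-incubated 15 min at 25° C with compound in 1 mM or 30 mM KCl buffer (pH 7.4; latter promotes inactivated state). Depolarized by KCl addition; peak fluorescence amplitude normalized to baseline gives inhibition.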

T1 sequence (P54289 947-1103): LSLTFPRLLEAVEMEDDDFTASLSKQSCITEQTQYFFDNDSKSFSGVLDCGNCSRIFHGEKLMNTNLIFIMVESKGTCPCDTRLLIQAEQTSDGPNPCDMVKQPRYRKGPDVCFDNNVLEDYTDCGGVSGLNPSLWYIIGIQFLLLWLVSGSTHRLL
T1 sequence (P54289 25-946): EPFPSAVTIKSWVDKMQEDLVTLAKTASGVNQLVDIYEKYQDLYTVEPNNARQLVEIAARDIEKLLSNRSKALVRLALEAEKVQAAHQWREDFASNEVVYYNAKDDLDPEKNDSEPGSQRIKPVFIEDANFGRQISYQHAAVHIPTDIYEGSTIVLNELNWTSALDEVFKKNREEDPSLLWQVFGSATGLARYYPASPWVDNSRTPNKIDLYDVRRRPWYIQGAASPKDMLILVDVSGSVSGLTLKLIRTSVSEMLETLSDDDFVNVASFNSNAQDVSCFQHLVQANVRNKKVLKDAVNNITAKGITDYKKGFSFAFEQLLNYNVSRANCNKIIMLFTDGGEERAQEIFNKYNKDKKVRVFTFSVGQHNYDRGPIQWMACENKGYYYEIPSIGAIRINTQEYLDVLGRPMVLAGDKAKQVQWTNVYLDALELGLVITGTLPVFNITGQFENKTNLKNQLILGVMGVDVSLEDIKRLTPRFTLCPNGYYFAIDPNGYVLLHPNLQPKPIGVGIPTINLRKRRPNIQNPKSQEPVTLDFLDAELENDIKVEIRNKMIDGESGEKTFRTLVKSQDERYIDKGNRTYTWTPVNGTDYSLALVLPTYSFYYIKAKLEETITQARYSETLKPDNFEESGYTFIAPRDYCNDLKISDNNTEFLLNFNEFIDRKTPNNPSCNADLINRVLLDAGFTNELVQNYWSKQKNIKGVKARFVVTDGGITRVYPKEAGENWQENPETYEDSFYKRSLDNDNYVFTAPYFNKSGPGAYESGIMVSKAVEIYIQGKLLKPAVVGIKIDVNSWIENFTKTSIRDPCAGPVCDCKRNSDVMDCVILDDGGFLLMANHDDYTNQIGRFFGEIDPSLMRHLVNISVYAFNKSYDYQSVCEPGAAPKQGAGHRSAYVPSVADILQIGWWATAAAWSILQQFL
T1 sequence (P54284 whole entry, further chain): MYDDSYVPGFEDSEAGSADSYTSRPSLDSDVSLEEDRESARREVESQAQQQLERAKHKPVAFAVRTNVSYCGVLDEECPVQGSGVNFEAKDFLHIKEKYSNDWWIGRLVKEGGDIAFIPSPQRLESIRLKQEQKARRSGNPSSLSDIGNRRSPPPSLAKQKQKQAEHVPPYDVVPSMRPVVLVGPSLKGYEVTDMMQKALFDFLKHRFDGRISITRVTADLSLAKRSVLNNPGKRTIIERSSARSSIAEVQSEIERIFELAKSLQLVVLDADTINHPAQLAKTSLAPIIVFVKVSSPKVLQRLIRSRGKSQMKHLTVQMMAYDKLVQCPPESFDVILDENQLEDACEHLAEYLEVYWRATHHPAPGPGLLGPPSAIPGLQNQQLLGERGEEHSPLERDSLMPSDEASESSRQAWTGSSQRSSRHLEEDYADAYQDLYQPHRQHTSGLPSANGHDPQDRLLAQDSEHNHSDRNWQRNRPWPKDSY
T1 sequence (Q00975 whole entry): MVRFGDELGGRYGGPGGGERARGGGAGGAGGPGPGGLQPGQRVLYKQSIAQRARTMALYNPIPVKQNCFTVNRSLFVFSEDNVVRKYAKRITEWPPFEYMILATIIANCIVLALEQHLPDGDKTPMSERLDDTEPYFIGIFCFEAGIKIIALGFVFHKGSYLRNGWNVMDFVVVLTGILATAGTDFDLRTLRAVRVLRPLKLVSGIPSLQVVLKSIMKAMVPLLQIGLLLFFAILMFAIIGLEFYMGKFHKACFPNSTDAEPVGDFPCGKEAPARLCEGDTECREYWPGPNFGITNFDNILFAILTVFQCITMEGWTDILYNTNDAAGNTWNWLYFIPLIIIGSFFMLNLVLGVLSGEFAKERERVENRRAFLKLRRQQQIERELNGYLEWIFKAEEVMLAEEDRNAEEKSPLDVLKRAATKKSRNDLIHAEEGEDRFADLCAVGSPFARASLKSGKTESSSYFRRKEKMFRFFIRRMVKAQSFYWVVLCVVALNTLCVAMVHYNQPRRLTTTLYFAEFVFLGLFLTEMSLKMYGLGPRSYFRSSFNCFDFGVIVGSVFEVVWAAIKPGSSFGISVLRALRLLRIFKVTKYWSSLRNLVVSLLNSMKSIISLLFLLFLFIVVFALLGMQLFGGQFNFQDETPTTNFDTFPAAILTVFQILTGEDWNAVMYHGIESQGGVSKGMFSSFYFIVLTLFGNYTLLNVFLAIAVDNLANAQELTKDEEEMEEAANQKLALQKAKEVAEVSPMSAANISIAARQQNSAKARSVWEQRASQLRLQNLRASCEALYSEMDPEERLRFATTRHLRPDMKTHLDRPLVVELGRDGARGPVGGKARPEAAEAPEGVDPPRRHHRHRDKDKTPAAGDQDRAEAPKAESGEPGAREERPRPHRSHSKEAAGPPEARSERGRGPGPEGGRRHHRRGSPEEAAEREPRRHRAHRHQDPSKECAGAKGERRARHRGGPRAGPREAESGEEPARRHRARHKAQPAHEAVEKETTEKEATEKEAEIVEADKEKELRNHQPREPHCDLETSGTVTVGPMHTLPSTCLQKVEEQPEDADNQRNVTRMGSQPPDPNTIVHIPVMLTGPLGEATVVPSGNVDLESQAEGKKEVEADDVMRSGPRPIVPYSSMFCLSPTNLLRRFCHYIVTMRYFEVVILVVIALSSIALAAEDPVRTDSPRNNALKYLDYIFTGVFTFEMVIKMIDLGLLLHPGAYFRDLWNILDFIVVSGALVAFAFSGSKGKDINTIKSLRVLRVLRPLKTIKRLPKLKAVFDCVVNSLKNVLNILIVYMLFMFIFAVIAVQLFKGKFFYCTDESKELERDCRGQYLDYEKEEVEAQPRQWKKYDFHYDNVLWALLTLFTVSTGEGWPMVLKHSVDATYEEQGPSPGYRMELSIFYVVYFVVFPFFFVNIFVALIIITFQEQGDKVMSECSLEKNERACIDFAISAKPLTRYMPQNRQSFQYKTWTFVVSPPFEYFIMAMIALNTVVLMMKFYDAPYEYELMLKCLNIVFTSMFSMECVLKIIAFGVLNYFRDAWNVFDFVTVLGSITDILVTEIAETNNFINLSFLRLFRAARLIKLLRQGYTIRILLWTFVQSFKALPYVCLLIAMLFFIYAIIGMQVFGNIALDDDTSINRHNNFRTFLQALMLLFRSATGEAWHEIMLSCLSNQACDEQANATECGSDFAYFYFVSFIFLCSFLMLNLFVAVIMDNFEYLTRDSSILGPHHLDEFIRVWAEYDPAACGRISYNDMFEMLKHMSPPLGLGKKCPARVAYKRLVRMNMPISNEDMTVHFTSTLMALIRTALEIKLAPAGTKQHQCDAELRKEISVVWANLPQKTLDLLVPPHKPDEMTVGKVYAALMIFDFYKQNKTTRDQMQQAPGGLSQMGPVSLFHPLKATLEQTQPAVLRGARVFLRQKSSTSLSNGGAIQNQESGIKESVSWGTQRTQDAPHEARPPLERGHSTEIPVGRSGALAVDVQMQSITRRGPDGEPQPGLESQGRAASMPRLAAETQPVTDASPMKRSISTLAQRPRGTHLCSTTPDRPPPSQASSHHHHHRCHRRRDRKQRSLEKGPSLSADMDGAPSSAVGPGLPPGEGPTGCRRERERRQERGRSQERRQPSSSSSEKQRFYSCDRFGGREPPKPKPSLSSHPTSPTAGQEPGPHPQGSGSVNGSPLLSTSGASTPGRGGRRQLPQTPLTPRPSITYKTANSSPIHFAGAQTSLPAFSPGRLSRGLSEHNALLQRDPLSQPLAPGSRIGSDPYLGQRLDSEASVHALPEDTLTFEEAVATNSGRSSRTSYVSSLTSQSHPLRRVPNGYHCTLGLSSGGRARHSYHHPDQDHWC

SMILES	Activity Category: %-Inhib (CaV2.2) @3 μM @30 mM KCl
CC1(S(=O)(=O)c2cccc(OC(F)(F)F)c2)CCOC(c2ncc(C(F)(F)F)cc2S(C)(=O)=O)C1 (stereo not shown) [SC-221, 3-Methylsulfonyl-2-[4-methyl-4-[[3-(trifluoromethyloxy)-phenyl]sulfonyl]-tetrahydro-pyran-2-yl]-5-(trifluoromethyl)-pyridine]	B (%-Inhibition >75% up to ≤95%)
C[S+]([O-])c1cc(C(F)(F)F)cnc1C1CC(C)(S(=O)(=O)c2cccc(C(F)(F)F)c2)CCO1 (stereo not shown) [SC-230, 3-(Methylsulfinyl)-2-[4-methyl-4-[[3-(trifluoromethyl)phenyl]sulfonyl]-tetrahydro-pyran-2-yl]-5-(trifluoromethyl)-pyridine]	B (%-Inhibition >75% up to ≤95%)
CCC1(S(=O)(=O)c2cccc(C(F)(F)F)c2)CCOC(c2ccc(C(F)(F)F)cn2)C1 (stereo not shown) [SC-108, 2-[4-Ethyl-4-[[3-(trifluoromethyl)phenyl]sulfonyl]-tetrahydro-pyran-2-yl]-5-(trifluoromethyl)-pyridine]	A (%-Inhibition >95%)
CC1(S(=O)(=O)c2cc(F)cc(C(F)(F)F)c2)CCOC(c2ncc(S(C)(=O)=O)cc2Cl)C1 (stereo not shown) [SC-214, 3-Chloro-2-[4-[[3-fluoro-5-(trifluoromethyl)-phenyl]sulfonyl]-4-methyl-tetrahydro-pyran-2-yl]-5-methylsulfonyl-pyridine]	C (%-Inhibition >40% up to ≤75%)
COc1cc(OC)c(C2CC(C)(S(=O)(=O)c3cccc(C(F)(F)F)c3)CCO2)cn1 (stereo not shown) [SC-246, 2,4-Dimethoxy-5-[4-methyl-4-[[3-(trifluoromethyl)phenyl]sulfonyl]-tetrahydro-pyran-2-yl]-pyridine]	A (%-Inhibition >95%)
CCC1(S(=O)(=O)c2cccc(C(F)(F)F)c2)CCOC(c2nnc(C(F)(F)F)o2)C1 (stereo not shown) [SC-241, 2-[4-Ethyl-4-[[3-(trifluoromethyl)phenyl]sulfonyl]-tetrahydro-pyran-2-yl]-5-(trifluoromethyl)-[1,3,4]oxadiazole]	B (%-Inhibition >75% up to ≤95%)
Cc1cc(S(C)(=O)=O)cnc1C1CC(C)(S(=O)(=O)c2cc(F)cc(C(F)(F)F)c2)CCO1 (stereo not shown) [SC-445, 2-[4-[[3-Fluoro-5-(trifluoromethyl)-phenyl]sulfonyl]-4-methyl-tetrahydro-pyran-2-yl]-3-methyl-5-methylsulfonyl-pyridine]	C (%-Inhibition >40% up to ≤75%)
Cc1ccc(OCC2CC(C)(S(=O)(=O)c3cccc(C(F)(F)F)c3)CCO2)cn1 (single isomer, unassigned) [SC-112, 2-Methyl-5-[[4-methyl-4-[[3-(trifluoromethyl)phenyl]sulfonyl]-tetrahydro-pyran-2-yl]-methoxy]-pyridine]	C (%-Inhibition >40% up to ≤75%)
Cn1nc(S(C)(=O)=O)cc1C1CC(C)(S(=O)(=O)c2cccc(C(F)(F)F)c2)CCO1 (stereo not shown) [SC-430, 1-Methyl-3-methylsulfonyl-5-[4-methyl-4-[[3-(trifluoromethyl)phenyl]sulfonyl]-tetrahydro-pyran-2-yl]-1H-pyrazole]	B (%-Inhibition >75% up to ≤95%)
CC1(S(=O)(=O)c2cccc(C(F)(F)F)c2)CCOC(c2cnc(C(F)(F)F)nc2)C1 (stereo not shown) [SC-305, 5-[4-Methyl-4-[[3-(trifluoromethyl)phenyl]sulfonyl]-tetrahydro-pyran-2-yl]-2-(trifluoromethyl)-pyrimidine]	A (%-Inhibition >95%)

Same assay, conditions: HEK293, 3 μM test compound; alternative assay buffer 30 mM KCl (inactivated channel state); HEK293 cells stably expressing human CaV2.2; read-out: Activity Category: %-Inhib (CaV2.2) @3 μM @30 mM KCl

SMILES	inhibition at 3 µM [%]
CC(C)Oc1ccc(C2CC(C)(S(=O)(=O)c3cccc(C(F)(F)F)c3)CCO2)cn1 (racemic) [SC-302, 2-Isopropoxy-5-[4-methyl-4-[[3-(trifluoromethyl)phenyl]sulfonyl]-tetrahydro-pyran-2-yl]-pyridine]	> 95
COc1cc(OC)c(C2CC(C)(S(=O)(=O)c3cccc(C(F)(F)F)c3)CCO2)cn1 (racemic) [SC-247, 2,4-Dimethoxy-5-[4-methyl-4-[[3-(trifluoromethyl)phenyl]sulfonyl]-tetrahydro-pyran-2-yl]-pyridine]	75 to 95
Cn1nc(C(F)(F)F)cc1C1CC(C)(S(=O)(=O)c2cccc(C(F)(F)F)c2)CCO1 (stereo not shown) [SC-343, 1-Methyl-5-[4-methyl-4-[[3-(trifluoromethyl)phenyl]sulfonyl]-tetrahydro-pyran-2-yl]-3-(trifluoromethyl)-1H-pyrazole]	75 to 95
COc1cnc(C2CC(C)(S(=O)(=O)c3cccc(C(F)(F)F)c3)CCO2)cn1 (stereo not shown) [SC-415, 2-Methoxy-5-[4-methyl-4-[[3-(trifluoromethyl)phenyl]sulfonyl]-tetrahydro-pyran-2-yl]-pyrazine]	75 to 95
CCC1(S(=O)(=O)c2cccc(C(F)(F)F)c2)CCOC(c2cnc(C3CC3)cn2)C1 (stereo not shown) [SC-332, 2-Cyclopropyl-5-[4-ethyl-4-[[3-(trifluoromethyl)phenyl]sulfonyl]-tetrahydro-pyran-2-yl]-pyrazine]	75 to 95
Cc1ccc(OCC2CC(C)(S(=O)(=O)c3cccc(C(F)(F)F)c3)CCO2)cn1 (stereo not shown) [SC-114, 2-Methyl-5-[[4-methyl-4-[[3-(trifluoromethyl)phenyl]sulfonyl]-tetrahydro-pyran-2-yl]-methoxy]-pyridine]	75 to 95
Cc1ccc(C2CC(S(=O)(=O)c3cccc(C(F)(F)F)c3)CCO2)c(C)n1 (stereo not shown) [SC-335, 2,6-Dimethyl-3-[4-[[3-(trifluoromethyl)phenyl]sulfonyl]-tetrahydro-pyran-2-yl]-pyridine]	40 to 75
CC1(S(=O)(=O)c2cccc(C(F)(F)F)c2)CCOC(c2ncc(OC(F)F)cc2Cl)C1 (racemic) [SC-438, 3-Chloro-5-(difluoro-methoxy)-2-[4-methyl-4-[[3-(trifluoromethyl)phenyl]sulfonyl]-tetrahydro-pyran-2-yl]-pyridine]	> 95
CCC1(S(=O)(=O)c2cccc(C(F)(F)F)c2)CCOC(c2cccnc2C)C1 (racemic) [SC-314, 3-[4-Ethyl-4-[[3-(trifluoromethyl)phenyl]sulfonyl]-tetrahydro-pyran-2-yl]-2-methyl-pyridine]	40 to 75
COc1cc(C)c(C2CC(C)(S(=O)(=O)c3cccc(C(F)(F)F)c3)CCO2)cn1 (racemic) [SC-252, 2-Methoxy-4-methyl-5-[4-methyl-4-[[3-(trifluoromethyl)phenyl]sulfonyl]-tetrahydro-pyran-2-yl]-pyridine]	75 to 95
CC1(S(=O)(=O)c2cccc(C(F)(F)F)c2)CCOC(c2nnc(C3CC3)o2)C1 (stereo not shown) [SC-127, 2-Cyclopropyl-5-[4-methyl-4-[[3-(trifluoromethyl)phenyl]sulfonyl]-tetrahydro-pyran-2-yl]-[1,3,4]oxadiazole]	40 to 75
CC(C)Oc1ccc(C2CC(C)(S(=O)(=O)c3cccc(C(F)(F)F)c3)CCO2)cn1 (stereo not shown) [SC-300, 2-Isopropoxy-5-[4-methyl-4-[[3-(trifluoromethyl)phenyl]sulfonyl]-tetrahydro-pyran-2-yl]-pyridine]	> 95
CCC1(S(=O)(=O)c2cccc(C(F)(F)F)c2)CCOC(c2nc(C3CC3)no2)C1 (stereo not shown) [SC-202, 3-Cyclopropyl-5-[4-ethyl-4-[[3-(trifluoromethyl)phenyl]sulfonyl]-tetrahydro-pyran-2-yl]-[1,2,4]oxadiazole]	75 to 95
CC1(S(=O)(=O)c2cccc(C(F)(F)F)c2)CCOC(c2ccc(-n3cncn3)nc2)C1 (racemic) [SC-407, 5-[4-Methyl-4-[[3-(trifluoromethyl)phenyl]sulfonyl]-tetrahydro-pyran-2-yl]-2-(1H-[1,2,4]triazol-1-yl)-pyridine]	75 to 95
CC1(S(=O)(=O)c2cccc(C(F)(F)F)c2)CCOC(c2ncc(S(C)(=O)=O)cc2Cl)C1 (single isomer, unassigned) [SC-130, 3-Chloro-5-methylsulfonyl-2-[4-methyl-4-[[3-(trifluoromethyl)phenyl]sulfonyl]-tetrahydro-pyran-2-yl]-pyridine]	75 to 95
CC1(S(=O)(=O)c2cccc(C(F)(F)F)c2)CCOC(c2ccc(C(F)(F)F)nc2)C1 (racemic) [SC-306, 5-[4-Methyl-4-[[3-(trifluoromethyl)phenyl]sulfonyl]-tetrahydro-pyran-2-yl]-2-(trifluoromethyl)-pyridine]	> 95
Cc1cc(S(C)(=O)=O)cnc1C1CC(C)(S(=O)(=O)c2cccc(C(F)(F)F)c2)CCO1 (racemic) [SC-441, 3-Methyl-5-methylsulfonyl-2-[4-methyl-4-[[3-(trifluoromethyl)phenyl]sulfonyl]-tetrahydro-pyran-2-yl]-pyridine]	75 to 95
Cc1cccc(C2CC(S(=O)(=O)c3cccc(C(F)(F)F)c3)CCO2)n1 (racemic) [SC-341, 2-methyl-6-[4-[[3-(trifluoromethyl)phenyl]sulfonyl]-tetrahydro-pyran-2-yl]-pyridine]	40 to 75
CC1(S(=O)(=O)c2cccc(C(F)(F)F)c2)CCOC(c2cnc(C3CC3)cn2)C1 (stereo not shown) [SC-327, 2-Cyclopropyl-5-[4-methyl-4-[[3-(trifluoromethyl)phenyl]sulfonyl]-tetrahydro-pyran-2-yl]-pyrazine]	75 to 95
CN(C)c1ccc(C2CC(C)(S(=O)(=O)c3cccc(C(F)(F)F)c3)CCO2)cn1 (stereo not shown) [SC-330, Dimethyl-[5-[4-methyl-4-[[3-(trifluoromethyl)phenyl]sulfonyl]-tetrahydro-pyran-2-yl]-pyridin-2-yl]-amine]	75 to 95
CCC1(S(=O)(=O)c2cccc(C(F)(F)F)c2)CCOC(c2cccc(C)n2)C1 (stereo not shown) [SC-324, 2-[4-Ethyl-4-[[3-(trifluoromethyl)phenyl]sulfonyl]-tetrahydro-pyran-2-yl]-6-methyl-pyridine]	75 to 95
